Reference: patent publication US12655124B2, “Heterocyclic compounds as modulators of stimulator of interferon genes (STING)” (RYVU THERAPEUTICS S.A., priority 2019, dated 2026)

How the values were obtained:
human STING = human STING (Homo sapiens, UniProt Q86WV6); assay: Fluorescence Thermal Shift assay (hSTING FTS binding assay); details: ΔTm, STING 0.1 mg/mL, SyproOrange, 25 to 99° C.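 Note: STING preincubated with compound for 20 min in HEPES NaCl buffer pH 7.5.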
Description: Fluorescence Thermal Shift Assay Compounds of the present invention were tested for binding to human STING in Fluorescence Thermal Shift assay. […] Final STING concentration was 0.1 mg/mL. Thermal unfolding was performed in Real-Time PCR QuantStudio 6 Flex System (Applied Biosystems), from 25 to 99° C., with continuous ramp mode and ramp rate 0.033° C./s. The data were analyzed using Protein Thermal Shift Software (ThermoFisher).

[1] = test system: CT26 murine colon carcinoma allografts; assay: In vivo anti-tumor efficacy, CT26 allograft; parameters: species or system female Balb/C mice; details: once every fifth day on three occasions; for response of CT26 tumors to the treatment: intravenously, all dose levels
Description: In Vivo Anti-Tumor Efficacy The efficacy of Example 4, Example 31 and Example 57 was evaluated in established CT26 murine colon carcinoma allografts in female Balb/C mice. Compounds were formulated in 5% ethanol with 10% Captisol in PBS and administered intravenously, once every fifth day on three occasions. The solution was prepared fresh prior to each administration. […] By the end of the study there was one complete response among animals treated at 10 mg/kg of Example 4. […] By the end of the study, on day 43, there was one complete response recorded in group treated at 20 mg/kg of Example 57.

Sequence of human STING (Q86WV6 whole entry H232R): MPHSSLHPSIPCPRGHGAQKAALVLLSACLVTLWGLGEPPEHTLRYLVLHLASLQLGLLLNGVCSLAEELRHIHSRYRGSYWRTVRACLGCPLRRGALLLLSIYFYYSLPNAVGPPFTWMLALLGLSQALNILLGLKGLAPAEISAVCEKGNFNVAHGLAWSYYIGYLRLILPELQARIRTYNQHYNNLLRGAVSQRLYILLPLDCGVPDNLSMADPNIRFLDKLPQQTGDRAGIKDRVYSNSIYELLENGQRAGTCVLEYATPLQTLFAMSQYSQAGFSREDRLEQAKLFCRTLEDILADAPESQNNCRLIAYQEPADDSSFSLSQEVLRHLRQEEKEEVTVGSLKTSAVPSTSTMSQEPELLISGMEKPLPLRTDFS

SMILES | hSTING FTS binding assay (ΔT ° C.) (human STING) | tumor growth effect compared to the control group ([1]; 5 mg/kg intravenously) | tumor growth effect compared to the control group ([1]; 10 mg/kg intravenously) | tumor growth effect compared to the control group ([1]; 20 mg/kg intravenously) | complete responses by the end of the study ([1]; 20 mg/kg intravenously, day 43) | dose dependence of the tumor response ([1]; 5, 10 and 20 mg/kg intravenously) | response of CT26 tumors to the treatment [1] | tumor growth effect compared to the control group ([1]; 7 mg/kg intravenously) | complete responses by the end of the study ([1]; 10 mg/kg intravenously) | tumor growth effect compared to the control group ([1]; 15 mg/kg intravenously) | tumor growth effect compared to the control group ([1]; 30 mg/kg intravenously) | complete responses by the end of the study ([1]; 30 mg/kg intravenously, day 43)
Cc1ccc(N2CCC[C@H](N(Cc3ccnc(C)c3)Cc3cn(C4CC4)c4cc(N5CC[C@H](N)C(F)(F)C5)c(F)cc4c3=O)C2)cn1.Cl (single isomer, unassigned) [Example 57] | +++ (ΔTm≥20° C.) | minimal tumor growth delay | moderately efficacious | full efficacious | one | dose dependent manner | responded prominently | – | – | – | – | –
COc1cc(CN(Cc2cn(C3CC3)c3cc(F)c(F)cc3c2=O)[C@H]2CCCN(c3ccc(N)nc3)C2)ccn1.Cl [Example 4, 3-({[(3S)-1-(6-Aminopyridin-3-yl)piperidin-3-yl][(2-methoxypyridin-4-yl)methyl]amino}methyl)-1-cyclopropyl-6,7-difluoro-1,4-dihydroquinolin-4-one Hydrochloride] | +++ (ΔTm≥20° C.) | – | efficacious and caused tumor growth delay or significant decrease of the tumor size | – | – | – | responded prominently | efficacious and caused tumor growth delay or significant decrease of the tumor size | one | – | – | –
Cc1ccc(N2CCC[C@H](N(Cc3ccnc(C)c3)Cc3cn(C4CC4)c4cc(N5CCC[C@H](O)C5)c(F)cc4c3=O)C2)cn1.Cl [Example 31, 1-cyclopropyl-6-fluoro-7-[(3S)-3-hydroxypiperidin-1-yl]-3-({[(3S)-1-(6-methylpyridin-3-yl)piperidin-3-yl][(2-methylpyridin-4-yl)methyl]amino}methyl)-1,4-dihydroquinolin-4-one Hydrochloride] | +++ (ΔTm≥20° C.) | – | – | – | – | – | responded prominently | slight tumor growth delay | – | prominently efficacious | prominently efficacious | two
